Results from patent EP4803080A1, “METHOD FOR TREATING LEUKEMIA” (Shenzhen TargetRx Co., Ltd., priority 2023, dated 2025).

What was measured:
Ba/F3 BCR-ABL1 F359V = assay: Cell growth inhibitory activity test (CellTiter-Glo); format: cell-based; conditions: Mus musculus, BaF3, 72 hours
Excerpt: (§1) The inhibitory effects of the compounds of the examples on the activity of Ba/F3 parental cells, Ba/F3 Bcr-Abl wild-type and mutant cells were detected.
(§2) This test used the Celltiter-Glo (CTG) kit (a homogeneous method for cell viability detection) provided by Promega to determine the cell viability of cultured cells by quantifying ATP. Ba/F3 parental cells were purchased from RIKEN BRC, catalog number RCB0805; other cells containing BCR-ABL1 wild-type and mutants were monoclonal engineered cell lines obtained by transfecting Ba/F3 parental cells with lentiviral plasmids containing WT or corresponding mutations of BCR-ABL1.
(§3) The steps for cell viability detection are as follows: • a) Collect cells in the logarithmic growth phase, prepare a cell suspension and count the cells to calculate the cell concentration. • b) After diluting the cell suspension to the desired concentration, add it to the inner wells of the 96-well plate, and add PBS to the edge wells. Wells containing only culture medium without cells serve as blank controls. • c) In addition to the cell plate used for compound analysis, prepare another 96-well plate as the T0 plate, adding 3-6 blank wells and 3-6 cell wells. Perform CTG assay the next day to measure cell viability, which serves as the T0 viability value for the cells. • d) Place the cell plate in a 37°C, 5% CO2 incubator and culture overnight. • e) The next day, add gradient-diluted compounds at various concentrations, and place the cell plate in a 37°C, 5% CO2 incubator for 72 hours.
(§4) The following nonlinear fitting formula was used to obtain the IC50 (half maximal inhibitory concentration) of the compounds: Y = Bottom + (Top−Bottom)/(1+10(LogIC50−X)∗HillSlope) [formula] • Y: Inhibition rate (%inhibition) • X: Logarithmic value of compound concentration • Top: Maximum response • Bottom: Baseline response • HillSlope: Slope of the curve

Ba/F3 BCR-ABL1 V299L = assay: as above; format: cell-based; conditions: Mus musculus, BaF3, 72 hours
Excerpt: as §1, §2, §3, §4

Ba/F3 BCR-ABL1 M351T = assay: as above; format: cell-based; conditions: Mus musculus, BaF3, 72 hours
Excerpt: as §1, §2, §3, §4

Ba/F3 parental cells = assay: as above; format: cell-based; conditions: Mus musculus, BaF3, 72 hours
Excerpt: as §1, §2, §3, §4

Ba/F3 BCR-ABL1 H396P = assay: as above; format: cell-based; conditions: Mus musculus, BaF3, 72 hours
Excerpt: as §1, §2, §3, §4

[1] = tested on: CML-CP with T315I mutation; assay: Phase I dose escalation and dose expansion clinical trial: efficacy in CML-CP subjects with T315I mutation; format: in vivo, humans
Excerpt: This study is a single-arm, open-label, dose-escalation and dose-expansion Phase I clinical trial.
The dose-escalation phase of this trial consists of about 8 dose groups, with oral administration under fasting conditions. Subjects in all dose groups will receive a single dose on Day 1 (D1), followed by pharmacokinetic (PK) and tolerability observations. […] After entering the multiple-dose period, subjects in the first dose group will initially receive twice-daily (BID) dosing (if PK data from the single-dose period are available, the dosing frequency during the multiple-dose period may be adjusted based on the PK data). The dosing frequency for subjects in subsequent dose groups after entering the multiple-dose period will be determined based on available PK and tolerability data. Throughout the trial, dosing frequency for all subjects may be adjusted based on continuously updated safety and PK data.
A continuous reassessment method (CRM) based on the principle of the escalation with overdose control (EWOC) design will be used to recommend the next specific dose for each dose escalation, thereby completing dose escalation and determining the maximum tolerated dose (MTD). If both the investigator and sponsor believe that higher dose groups may offer better efficacy and manageable safety, the EWOC-based CRM method may be used to explore higher doses. All enrolled subjects will receive long-term treatment with the test drug and undergo evaluations for safety, tolerability, and preliminary efficacy.
After obtaining certain research data from the dose-escalation phase, the investigator may comprehensively consider safety, efficacy, and other information to decide whether to enroll additional subjects at the MTD and/or lower dose levels to determine the recommended Phase II dose (RP2D). Two to four suitable dosing regimens will be selected for expansion in the target population (including subjects enrolled at the target dose levels during the escalation phase).
A total of 8 dose groups were established: 10 mg bid, 20 mg bid, 40 mg bid, 80 mg bid, 40 mg qd, 80 mg qd, 160 mg qd, and 240 mg qd.
The dose expansion phase was conducted in the following 3 cohorts: • Cohort 1: Subjects with chronic phase (CP) chronic myeloid leukemia (CML) who had previously received at least ≥2 different TKIs and were T315I-negative. A total of 3 dose groups were established: 40 mg qd, 80 mg qd, and 240 mg qd; • Cohort 2: Subjects with chronic phase (CP) chronic myeloid leukemia (CML) who have previously received ≥1 TKI and were T315I-positive. A total of 2 dose groups were established: 40 mg qd and 240 mg qd; • Cohort 3: Subjects with accelerated phase (AP) chronic myeloid leukemia (CML) who have previously received ≥1 TKI, regardless of T315I positivity. A total of 1 dose group was established: 240 mg qd.

[2] = CML-CP subjects with T315I mutation, all doses, 16 evaluable, as of August 24, 2023
[3] = CML-CP subjects with T315I mutation, as of August 24, 2023
[4] = CML-CP subjects with T315I mutation, as of June 2, 2024
[5] = CML-CP with T315I mutation, 10 mg BID, 0 evaluable subjects, as of August 24, 2023
[6] = CML-CP with T315I mutation, 20 mg BID, 1 evaluable subject, as of August 24, 2023
[7] = CML-CP with T315I mutation, 40 mg BID, 1 evaluable subject, as of August 24, 2023
[8] = CML-CP with T315I mutation, 40 mg QD, 2 evaluable subjects, as of August 24, 2023
[9] = CML-CP with T315I mutation, 40 mg/day Total, 3 evaluable subjects, as of August 24, 2023
[10] = CML-CP with T315I mutation, 80 mg BID, 1 evaluable subject, as of August 24, 2023
[11] = CML-CP with T315I mutation, 80 mg QD, 0 evaluable subjects, as of August 24, 2023
[12] = CML-CP with T315I mutation, 80 mg/day Total, 1 evaluable subject, as of August 24, 2023
[13] = CML-CP with T315I mutation, 160 mg QD, 1 evaluable subject, as of August 24, 2023
[14] = CML-CP with T315I mutation, 160 mg/day Total, 2 evaluable subjects, as of August 24, 2023
[15] = CML-CP with T315I mutation, 240 mg QD, 10 evaluable subjects, as of August 24, 2023
[16] = CML-CP with T315I mutation, Total, all dose groups, 16 evaluable subjects, as of August 24, 2023

**Q.** O=C(Nc1ccc(OC(F)(F)Cl)cc1)c1cnc(N2CC[C@@H](F)C2)c(-c2cnccn2)c1 [Compound A, (R)-N-(4-(chlorodifluoromethoxy)phenyl)-6-(3-fluoropyrrolidin-1-yl)-5-(pyrazin-2-yl)nicotinamide] was tested. Which IC50 (Ba/F3 BCR-ABL1 F359V) did it give?
**A.** 0.0894 ± 0.00891 µM

**Q.** And the IC50 (Ba/F3 BCR-ABL1 V299L)?
**A.** 0.0723 ± 0.00587 µM

**Q.** What about the IC50 (Ba/F3 BCR-ABL1 M351T) of the same molecule?
**A.** 0.00352 ± 0.0005 µM

**Q.** What about the IC50 (Ba/F3 parental cells) of the same molecule?
**A.** 10 µM

**Q.** And the IC50 (Ba/F3 BCR-ABL1 H396P)?
**A.** 0.0117 ± 0.00028 µM

**Q.** And the CHR ([1]; CML-CP subjects with T315I mutation, all doses, 13 evaluable, as of August 24, 2023)?
**A.** 92.3%

**Q.** What about the CCyR [1, 2] of the same molecule?
**A.** 56.3%

**Q.** What about the MCyR [1, 2] of the same molecule?
**A.** 62.5%

**Q.** What about the MMR ([1]; CML-CP subjects with T315I mutation, all doses, 17 evaluable, as of August 24, 2023) of the same molecule?
**A.** 35.3%

**Q.** What about the “CHR within 3 treatment cycles” value ([1]; CML-CP subjects with T315I mutation, 20 evaluable, as of June 2, 2024) of the same molecule?
**A.** 80%

**Q.** And the “median time to CCyR” value [1, 3]?
**A.** 2.83 (2.76, 2.92) months

**Q.** And the “median time to MCyR” value [1, 3]?
**A.** 2.81 (2.76, 2.83) months

**Q.** What about the “median time to MMR” value [1, 3] of the same molecule?
**A.** 2.81 (2.76, 3.68) months

**Q.** What about the “18-month cumulative incidence of CCyR” value [1, 4] of the same molecule?
**A.** 69%

**Q.** And the “18-month cumulative incidence of MCyR” value [1, 4]?
**A.** 76%

**Q.** And the “18-month cumulative incidence of MMR” value [1, 4]?
**A.** 50%

**Q.** And the CCyR [1, 5]?
**A.** 0 n (%)

**Q.** And the CHR [1, 5]?
**A.** 0 n (%)

**Q.** What about the MCyR [1, 5] of the same molecule?
**A.** 0 n (%)

**Q.** And the MMR [1, 5]?
**A.** 0 n (%)

**Q.** And the CCyR [1, 6]?
**A.** 1 (100) n (%)

**Q.** What about the CHR [1, 6] of the same molecule?
**A.** 1 (100) n (%)

**Q.** What about the MCyR [1, 6] of the same molecule?
**A.** 1 (100) n (%)

**Q.** What about the MMR [1, 6] of the same molecule?
**A.** 0 n (%)

**Q.** And the CCyR [1, 7]?
**A.** 0 n (%)

**Q.** What about the CHR [1, 7] of the same molecule?
**A.** 1 (100) n (%)

**Q.** What about the MCyR [1, 7] of the same molecule?
**A.** 0 n (%)

**Q.** And the MMR [1, 7]?
**A.** 0 n (%)

**Q.** And the CHR ([1]; CML-CP with T315I mutation, 40 mg QD, 0 evaluable subjects, as of August 24, 2023)?
**A.** 0 n (%)

**Q.** What about the CCyR [1, 8] of the same molecule?
**A.** 2 (100) n (%)

**Q.** What about the MCyR [1, 8] of the same molecule?
**A.** 2 (100) n (%)

**Q.** And the MMR ([1]; CML-CP with T315I mutation, 40 mg QD, 3 evaluable subjects, as of August 24, 2023)?
**A.** 2 (66.7) n (%)

**Q.** And the CHR ([1]; CML-CP with T315I mutation, 40 mg/day Total, 1 evaluable subject, as of August 24, 2023)?
**A.** 1 (100) n (%)

**Q.** What about the CCyR [1, 9] of the same molecule?
**A.** 3 (100) n (%)

**Q.** And the MCyR [1, 9]?
**A.** 3 (100) n (%)

**Q.** And the MMR ([1]; CML-CP with T315I mutation, 40 mg/day Total, 4 evaluable subjects, as of August 24, 2023)?
**A.** 2 (50.0) n (%)

**Q.** And the CHR ([1]; CML-CP with T315I mutation, 80 mg BID, 0 evaluable subjects, as of August 24, 2023)?
**A.** 0 n (%)

**Q.** And the CCyR [1, 10]?
**A.** 1 (100) n (%)

**Q.** What about the MCyR [1, 10] of the same molecule?
**A.** 1 (100) n (%)

**Q.** What about the MMR [1, 10] of the same molecule?
**A.** 1 (100) n (%)

**Q.** What about the CCyR [1, 11] of the same molecule?
**A.** 0 n (%)

**Q.** What about the CHR [1, 11] of the same molecule?
**A.** 0 n (%)

**Q.** What about the MCyR [1, 11] of the same molecule?
**A.** 0 n (%)

**Q.** What about the MMR [1, 11] of the same molecule?
**A.** 0 n (%)

**Q.** And the CCyR [1, 12]?
**A.** 0 n (%)

**Q.** What about the CHR [1, 12] of the same molecule?
**A.** 1 (100) n (%)

**Q.** What about the MCyR [1, 12] of the same molecule?
**A.** 0 n (%)

**Q.** What about the MMR [1, 12] of the same molecule?
**A.** 0 n (%)

**Q.** What about the CCyR [1, 13] of the same molecule?
**A.** 1 (100) n (%)

**Q.** And the CHR [1, 13]?
**A.** 1 (100) n (%)

**Q.** What about the MCyR [1, 13] of the same molecule?
**A.** 1 (100) n (%)

**Q.** What about the MMR [1, 13] of the same molecule?
**A.** 1 (100) n (%)

**Q.** What about the CHR ([1]; CML-CP with T315I mutation, 160 mg/day Total, 1 evaluable subject, as of August 24, 2023) of the same molecule?
**A.** 1 (100) n (%)

**Q.** What about the CCyR [1, 14] of the same molecule?
**A.** 2 (100) n (%)

**Q.** And the MCyR [1, 14]?
**A.** 2 (100) n (%)

**Q.** What about the MMR [1, 14] of the same molecule?
**A.** 2 (100) n (%)

**Q.** And the CCyR [1, 15]?
**A.** 4 (40.0) n (%)

**Q.** And the CHR [1, 15]?
**A.** 9 (90.0) n (%)

**Q.** What about the MCyR [1, 15] of the same molecule?
**A.** 5 (50.0) n (%)

**Q.** And the MMR [1, 15]?
**A.** 2 (20.0) n (%)

**Q.** What about the CHR ([1]; CML-CP with T315I mutation, Total, all dose groups, 13 evaluable subjects, as of August 24, 2023) of the same molecule?
**A.** 12 (92.3) n (%)

**Q.** What about the CCyR [1, 16] of the same molecule?
**A.** 9 (56.3) n (%)

**Q.** And the MCyR [1, 16]?
**A.** 10 (62.5) n (%)

**Q.** And the MMR ([1]; CML-CP with T315I mutation, Total, all dose groups, 17 evaluable subjects, as of August 24, 2023)?
**A.** 6 (35.3) n (%)
